Results: publication PMC6265310, “Purification, Characterization and in vitro Evaluation of Polymyxin A From Paenibacillus dendritiformis: An Underexplored Member of the Polymyxin Family” (Frontiers in Microbiology, 2018)
Converted amounts (≈) assume the structure as drawn. Read-outs that look alike come from different tables or passages of the source. Where a SMILES comes first, the peptide text is derived from it. Bridges are numbered along the chain shown (N, C = ends). [ ]: non-standard residue; d: D form. The star is where a group is joined. X1 = CC[C@H](C)CCCCC(=O)*; dDab = NCC[C@@H](N)C(=O)O; Dab = NCC[C@H](N)C(=O)O

Key:
[1] = tested on: Enterococcus faecalis ATCC 51299; settings: Enterococcus faecalis ATCC 51299
[2] = tested on: Escherichia coli ATCC 35218; settings: Escherichia coli ATCC 35218
[3] = tested on: Klebsiella pneumoniae ATCC BAA1706; settings: Klebsiella pneumoniae ATCC BAA1706
[4] = tested on: Klebsiella pneumoniae ATCC 700603; settings: Klebsiella pneumoniae ATCC 700603
[5] = tested on: Pseudomonas aeruginosa ATCC 27853; settings: Pseudomonas aeruginosa ATCC 27853
[6] = tested on: Vibrio cholerae MTCC 3906
[7] = tested on: human leukemic monocyte cell line (THP-1 ATCC TIB-202); format: cell-based
Experimental: (§1) 3-(4,5-dimethylthiazol-2-yl)-2,5-diphenyltetrazolium bromide (MTT) assay was employed to examine the cytotoxicity against human leukemic monocyte cell line (THP-1 ATCC TIB-202) and human embryonic kidney cell line (HEK293 ATCC CRL-1573) as explained by [Kaur et al. (2017)]. Toxicity of both compounds was compared with polymyxin B and colistin at concentrations ranging from 62.5 to1000 μg/ml.

[8] = tested on: human embryonic kidney cell line (HEK293 ATCC CRL-1573); format: cell-based
Experimental: as §1

[9] = tested on: Escherichia coli ATCC 25922; settings: Escherichia coli ATCC 25922
[10] = tested on: Bacillus subtilis ATCC 6633; settings: Bacillus subtilis ATCC 6633
[11] = tested on: Acinetobacter baumannii ATCC 19606; settings: Acinetobacter baumannii ATCC 19606; Ca-MHB, 37°C, 20–24 h
[12] = tested on: Vibrio parahaemolyticus ATCC17802
[13] = tested on: Klebsiella pneumoniae ATCC- BAA 2146; settings: Klebsiella pneumoniae ATCC- BAA 2146
[14] = tested on: Staphylococcus aureus ATCC 25923; settings: Staphylococcus aureus ATCC 25923
[15] = tested on: Klebsiella pneumoniae ATCC 29665; settings: Klebsiella pneumoniae ATCC 29665
[16] = tested on: LPS (E. coli strain 055:B5 origin); format: binding; settings: read-out: Dissociation constant (Kd)

**Q.** What does the source list for `CC[C@H](C)CCCCC(=O)N[C@@H](CCN)C(=O)N[C@H](C(=O)N[C@H](CCN)C(=O)N[C@H]1CCNC(=O)[C@H]([C@@H](C)O)NC(=O)[C@H](CCN)NC(=O)[C@H](CCN)NC(=O)[C@H]([C@@H](C)O)NC(=O)[C@@H](CC(C)C)NC(=O)[C@H](CCN)NC1=O)[C@@H](C)O` [P2, polymyxin A1] (X1-[Dab]T[dDab][Dab][Dab][dL]T[Dab][Dab]T; lactam 4-C)?
**A.** MIC (E. coli 7210; 7210): 1 µg/mL (≈ 0.864 µM); MIC (K. Pneumoniae 1428; 1428): 2 µg/mL (≈ 1.73 µM); MIC (A. baumannii AB2; AB2): 1 µg/mL (≈ 0.864 µM); MIC [1]: >16 µg/mL; MIC (P. aeruginosa PA4; PA4): 1 µg/mL (≈ 0.864 µM); MIC [2]: 0.5 µg/mL (≈ 0.432 µM); MIC [3]: 1 µg/mL (≈ 0.864 µM); MIC [4]: 1 µg/mL (≈ 0.864 µM); MIC (A. baumannii GMCH18; GMCH18): 0.5 µg/mL (≈ 0.432 µM); MIC (E. coli 3185; 3185): 0.5 µg/mL (≈ 0.432 µM); MIC (E. coli 14504; 14504): 0.5 µg/mL (≈ 0.432 µM); MIC (P. aeruginosa PA5; PA5): 2 µg/mL (≈ 1.73 µM); MIC (E. coli 14363; 14363): 0.5 µg/mL (≈ 0.432 µM); MIC (K. Pneumoniae GMCH11; GMCH11): 1 µg/mL (≈ 0.864 µM); MIC (K. Pneumoniae GMCH12; GMCH12): 1 µg/mL (≈ 0.864 µM); MIC (K. Pneumoniae GMCH04; GMCH04): 0.5 µg/mL (≈ 0.432 µM); MIC [5]: 1 µg/mL (≈ 0.864 µM); MIC [6]: 8 µg/mL (≈ 6.91 µM); MIC (K. Pneumoniae 1573; 1573): 0.5 µg/mL (≈ 0.432 µM); MIC (K. Pneumoniae B8; B8): 1 µg/mL (≈ 0.864 µM); MIC (P. aeruginosa PA1; PA1): 2 µg/mL (≈ 1.73 µM); IC50 [7]: 500 µg/mL (≈ 432 µM); toxicity ranking against HEK cells [8]: highest toxicity among four compounds; MIC [9]: 1 µg/mL (≈ 0.864 µM); MIC (E. coli 9062; 9062): 1 µg/mL (≈ 0.864 µM); MIC (E. coli 7932; 7932): 1 µg/mL (≈ 0.864 µM); MIC [10]: 8 µg/mL (≈ 6.91 µM); MIC (K. Pneumoniae GMCH 16; GMCH 16): 0.5 µg/mL (≈ 0.432 µM); MIC (P. aeruginosa PA6; PA6): 2 µg/mL (≈ 1.73 µM); MIC (A. baumannii GMCH 14; GMCH 14): 1 µg/mL (≈ 0.864 µM); MIC (A. baumannii GMCH05; GMCH05): 1 µg/mL (≈ 0.864 µM); MIC (K. Pneumoniae GMCH13; GMCH13): 0.5 µg/mL (≈ 0.432 µM); MIC (P. aeruginosa PA2; PA2): 2 µg/mL (≈ 1.73 µM); MIC (E. coli 7534; 7534): 0.5 µg/mL (≈ 0.432 µM); MIC (P. aeruginosa PA3; PA3): 2 µg/mL (≈ 1.73 µM); MIC (E. coli 14084; 14084): 0.5 µg/mL (≈ 0.432 µM); MIC (P. aeruginosa GMCH06; GMCH06): 1 µg/mL (≈ 0.864 µM); MIC (E. coli 13425; 13425): 1 µg/mL (≈ 0.864 µM); MIC (K. Pneumoniae GMCH10; GMCH10): 1 µg/mL (≈ 0.864 µM); MIC [11]: 1 µg/mL (≈ 0.864 µM); MIC [12]: 1 µg/mL (≈ 0.864 µM); MIC [13]: 1 µg/mL (≈ 0.864 µM); MIC (A. baumannii AB1; AB1): 1 µg/mL (≈ 0.864 µM); MIC [14]: >16 µg/mL; MIC [15]: 1 µg/mL (≈ 0.864 µM); MIC (K. Pneumoniae 827; 827): 1 µg/mL (≈ 0.864 µM)

**Q.** Which MIC (E. coli 7210; E. coli 7210, MDR clinical isolate) does the source give for “polymyxin E (colistin) [PE, reference compound]” here?
**A.** 1 µg/mL

**Q.** And the MIC (K. Pneumoniae 1428; K. Pneumoniae 1428, MDR clinical isolate)?
**A.** 2 µg/mL

**Q.** What about the MIC (A. baumannii AB2; A. baumannii AB2, MDR clinical isolate) of the same compound?
**A.** 1 µg/mL

**Q.** And the MIC [1]?
**A.** >16 µg/mL

**Q.** What about the MIC (P. aeruginosa PA4; P. aeruginosa PA4, MDR clinical isolate) of the same compound?
**A.** 1 µg/mL

**Q.** What about the MIC [2] of the same compound?
**A.** 0.5 µg/mL

**Q.** And the MIC [3]?
**A.** 0.5 µg/mL

**Q.** What about the MIC [4] of the same compound?
**A.** 1 µg/mL

**Q.** And the MIC (A. baumannii GMCH18; A. baumannii GMCH18, MDR clinical isolate)?
**A.** 1 µg/mL

**Q.** What about the MIC (E. coli 3185; E. coli 3185, MDR clinical isolate) of the same compound?
**A.** 0.5 µg/mL

**Q.** And the MIC (E. coli 14504; E. coli 14504, MDR clinical isolate)?
**A.** 1 µg/mL

**Q.** What about the MIC (P. aeruginosa PA5; P. aeruginosa PA5, MDR clinical isolate) of the same compound?
**A.** 2 µg/mL

**Q.** What about the MIC (E. coli 14363; E. coli 14363, MDR clinical isolate) of the same compound?
**A.** 0.5 µg/mL

**Q.** And the MIC (K. Pneumoniae GMCH11; K. Pneumoniae GMCH11, MDR clinical isolate)?
**A.** 0.5 µg/mL

**Q.** What about the MIC (K. Pneumoniae GMCH12; K. Pneumoniae GMCH12, MDR clinical isolate) of the same compound?
**A.** 1 µg/mL

**Q.** And the MIC (K. Pneumoniae GMCH04; K. Pneumoniae GMCH04, MDR clinical isolate)?
**A.** 0.5 µg/mL

**Q.** And the MIC [5]?
**A.** 1 µg/mL

**Q.** What about the MIC [6] of the same compound?
**A.** >16 µg/mL

**Q.** What about the MIC (K. Pneumoniae 1573; K. Pneumoniae 1573, MDR clinical isolate) of the same compound?
**A.** 1 µg/mL

**Q.** And the MIC (K. Pneumoniae B8; K. Pneumoniae B8, MDR clinical isolate)?
**A.** 1 µg/mL

**Q.** What about the MIC (P. aeruginosa PA1; P. aeruginosa PA1, MDR clinical isolate) of the same compound?
**A.** 2 µg/mL

**Q.** What about the IC50 ([7]; THP-1 cells, MTT, 62.5 to 1000 μg/ml) of the same compound?
**A.** > 250 µg/mL

**Q.** And the IC50 ([8]; HEK293 cells, MTT, 62.5 to 1000 μg/ml)?
**A.** above 1000 μg/ml

**Q.** What about the MIC [9] of the same compound?
**A.** 1 µg/mL

**Q.** And the MIC (E. coli 9062; E. coli 9062, MDR clinical isolate)?
**A.** 1 µg/mL

**Q.** And the MIC (E. coli 7932; E. coli 7932, MDR clinical isolate)?
**A.** 1 µg/mL

**Q.** And the MIC [10]?
**A.** 16 µg/mL

**Q.** And the MIC (K. Pneumoniae GMCH 16; K. Pneumoniae GMCH 16, MDR clinical isolate)?
**A.** 1 µg/mL

**Q.** What about the Kd [16] of the same compound?
**A.** 7.04 µM

**Q.** And the MIC (P. aeruginosa PA6; P. aeruginosa PA6, MDR clinical isolate)?
**A.** 2 µg/mL

**Q.** And the MIC (A. baumannii GMCH 14; A. baumannii GMCH 14, MDR clinical isolate)?
**A.** 1 µg/mL

**Q.** And the MIC (A. baumannii GMCH05; A. baumannii GMCH05, MDR clinical isolate)?
**A.** 1 µg/mL

**Q.** And the MIC (K. Pneumoniae GMCH13; K. Pneumoniae GMCH13, MDR clinical isolate)?
**A.** 1 µg/mL

**Q.** What about the MIC (P. aeruginosa PA2; P. aeruginosa PA2, MDR clinical isolate) of the same compound?
**A.** 2 µg/mL

**Q.** And the MIC (E. coli 7534; E. coli 7534, MDR clinical isolate)?
**A.** 0.5 µg/mL

**Q.** What about the MIC (P. aeruginosa PA3; P. aeruginosa PA3, MDR clinical isolate) of the same compound?
**A.** 2 µg/mL

**Q.** And the MIC (E. coli 14084; E. coli 14084, MDR clinical isolate)?
**A.** 0.5 µg/mL

**Q.** What about the MIC (P. aeruginosa GMCH06; P. aeruginosa GMCH06, MDR clinical isolate) of the same compound?
**A.** 1 µg/mL

**Q.** And the MIC (E. coli 13425; E. coli 13425, MDR clinical isolate)?
**A.** 1 µg/mL

**Q.** What about the MIC (K. Pneumoniae GMCH10; K. Pneumoniae GMCH10, MDR clinical isolate) of the same compound?
**A.** 1 µg/mL

**Q.** And the MIC [11]?
**A.** 1 µg/mL

**Q.** And the MIC [12]?
**A.** 1 µg/mL

**Q.** And the MIC [13]?
**A.** 0.5 µg/mL

**Q.** And the MIC (A. baumannii AB1; A. baumannii AB1, MDR clinical isolate)?
**A.** 1 µg/mL

**Q.** And the MIC [14]?
**A.** >16 µg/mL

**Q.** What about the MIC [15] of the same compound?
**A.** 0.5 µg/mL

**Q.** And the MIC (K. Pneumoniae 827; K. Pneumoniae 827, MDR clinical isolate)?
**A.** 1 µg/mL
